For one assay, the target named is T1, FLT3 D835Y (Homo sapiens, UniProt P36888, D835Y).
T1 sequence (P36888 27-993 D835Y): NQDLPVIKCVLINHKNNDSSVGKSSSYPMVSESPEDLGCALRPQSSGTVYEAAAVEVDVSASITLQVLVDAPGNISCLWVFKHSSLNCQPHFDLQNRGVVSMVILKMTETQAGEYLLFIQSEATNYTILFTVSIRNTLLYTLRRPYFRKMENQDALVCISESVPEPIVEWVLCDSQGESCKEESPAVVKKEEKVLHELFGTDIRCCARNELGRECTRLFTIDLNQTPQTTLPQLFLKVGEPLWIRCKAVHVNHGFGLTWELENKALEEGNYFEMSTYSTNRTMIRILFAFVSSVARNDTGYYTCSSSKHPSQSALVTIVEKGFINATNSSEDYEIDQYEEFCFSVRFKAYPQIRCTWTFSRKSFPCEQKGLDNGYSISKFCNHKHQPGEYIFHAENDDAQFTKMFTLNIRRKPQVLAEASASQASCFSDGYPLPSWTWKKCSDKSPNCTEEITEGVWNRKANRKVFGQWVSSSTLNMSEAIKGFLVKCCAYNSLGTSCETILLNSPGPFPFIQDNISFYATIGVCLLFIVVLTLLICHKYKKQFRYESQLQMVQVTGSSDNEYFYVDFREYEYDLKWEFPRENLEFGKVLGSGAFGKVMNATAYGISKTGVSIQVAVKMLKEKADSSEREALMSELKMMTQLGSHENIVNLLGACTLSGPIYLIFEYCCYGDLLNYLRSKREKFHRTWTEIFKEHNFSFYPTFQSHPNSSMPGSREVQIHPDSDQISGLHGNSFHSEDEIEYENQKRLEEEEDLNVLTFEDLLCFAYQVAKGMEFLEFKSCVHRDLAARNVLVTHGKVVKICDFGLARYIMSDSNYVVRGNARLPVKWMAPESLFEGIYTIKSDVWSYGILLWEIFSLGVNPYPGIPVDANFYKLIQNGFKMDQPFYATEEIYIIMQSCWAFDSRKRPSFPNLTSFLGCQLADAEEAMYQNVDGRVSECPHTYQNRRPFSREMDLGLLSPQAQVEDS
Kind of assay: Biochemical FLT3 D835Y assay. To be noted: geometric mean; assay as in US2017/0267660; read-out: FLT3 D835Y GMean: IC50 (μM) (Biochemical Assay). On the procedure:
FLT3 D835Y assays were conducted on certain compounds of this disclosure as described in U.S. Patent Publication No. US2017/0267660.
Table II provides data indicating FLT3 D835Y biochemical inhibitory activities for exemplary compounds as described herein.

Another assay concerns the target TGFβR2 (Homo sapiens, UniProt P37173). Kind of assay: Biochemical TGFβR2 assay (LanthaScreen Europium Kinase Binding Assay). To be noted: geometric mean; tracer displacement, five concentrations 1.0-0.0039 μM in duplicate; read-out: TGFBR2 GMean: IC50 (μM) (Biochemical Assay). Here is the method:
The IC50 of certain compounds in this disclosure against TGFβR2 was conducted under contract at Thermo Fisher Scientific, Life Sciences Solutions as part of their SelectScreen™ profiling service. The TGFβR2 assay used the LanthaScreen® Europium Kinase Binding Assay. Binding of an Alexa Fluor® conjugate Tracer 199 (100 nM) to TGFβR2 (5 nM) was detected by addition of a Eu-labeled anti-tag antibody (5 nM) in Kinase Buffer A (50 mM HEPES pH 7.5, 0.01% BRIJ-35, 10 mM MgCl2, 1 mM EGTA) and 1% final DMSO. […] The percent inhibition was calculated from the emission ratio of Alexa Fluor® and Europium as documented by Thermo Fisher (www.thermofisher.com/kinaseprofiling). The IC50 of certain compounds in this disclosure was determined by testing a dilution series of the compound in duplicate at five concentrations (1.0, 0.25, 0.062, 0.015 and 0.0039 μM) by fitting the inhibition data with a sigmoidal curve fit model.
Table II provides data indicating TGFBR2 biochemical inhibitory activities for exemplary compounds as described herein.

Assay [1] has as its system quizartinib resistance-causing mutants of FLT3-ITD. To be noted: all identified quizartinib resistance-causing mutants and other mutant isoforms (Smith et al.); cited from earlier work.

TGFβR2, sequence (P37173 23-567): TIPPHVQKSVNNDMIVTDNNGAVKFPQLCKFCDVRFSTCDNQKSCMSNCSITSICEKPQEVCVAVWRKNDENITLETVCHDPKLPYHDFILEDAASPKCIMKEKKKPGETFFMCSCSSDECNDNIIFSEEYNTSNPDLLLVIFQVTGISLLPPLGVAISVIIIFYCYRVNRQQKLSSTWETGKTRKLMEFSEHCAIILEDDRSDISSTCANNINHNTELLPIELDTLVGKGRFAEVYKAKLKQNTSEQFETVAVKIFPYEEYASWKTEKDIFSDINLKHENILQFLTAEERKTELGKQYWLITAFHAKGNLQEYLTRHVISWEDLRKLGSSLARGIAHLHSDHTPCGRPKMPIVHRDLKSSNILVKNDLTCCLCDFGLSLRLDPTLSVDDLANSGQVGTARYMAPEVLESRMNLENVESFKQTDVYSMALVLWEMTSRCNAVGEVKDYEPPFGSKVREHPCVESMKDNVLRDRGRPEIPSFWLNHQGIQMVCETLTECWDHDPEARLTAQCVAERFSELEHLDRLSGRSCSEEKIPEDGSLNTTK

As for `CC(C)(C#N)NC(=O)c1cccc(-c2cnc3[nH]c(-c4cnn(CC#N)c4)cc3c2)n1` [P-001, 6-(2-(1-(cyanomethyl)-1H-pyrazol-4-yl)-1H-pyrrolo[2,3-b]pyridin-5-yl)-N-(2-cyanopropan-2-yl)picolinamide], the IC50 at FLT3 D835Y and at TGFβR2 was 0.0001 to 10 µM throughout.

For `CC(C)(C#N)NC(=O)c1cccc(-c2cnc3[nH]c(-c4c(F)nn(C(F)F)c4F)c(F)c3c2)n1` [P-003, N-(1-cyano-1-methyl-ethyl)-6-[2-[1-(difluoromethyl)-3,5-difluoro-pyrazol-4-yl]-3-fluoro-1H-pyrrolo[2,3-b]pyridin-5-yl]pyridine-2-carboxamide], the concentration for half-maximal inhibition (IC50) at FLT3 D835Y and at TGFβR2 was 0.0001 to 10 µM each time.

On to `CC(C)(C#N)NC(=O)c1cccc(-c2cnc3[nH]c(-c4cnn(C(F)F)c4)c(F)c3c2)n1` [P-004, N-(1-cyano-1-methyl-ethyl)-6-[2-[1-(difluoromethyl)pyrazol-4-yl]-3-fluoro-1H-pyrrolo[2,3-b]pyridin-5-yl]pyridine-2-carboxamide], for which the half-inhibitory concentration (IC50) on FLT3 D835Y and on TGFβR2 was 0.0001 to 10 µM each time.

As for `CC(C)(C#N)NC(=O)c1cccc(-c2cnc3[nH]c(-c4cnn(C(F)F)c4)c(Br)c3c2)n1` [P-005, 6-[3-bromo-2-[1-(difluoromethyl)pyrazol-4-yl]-1H-pyrrolo[2,3-b]pyridin-5-yl]-N-(1-cyano-1-methyl-ethyl)pyridine-2-carboxamide], the concentration for half-maximal inhibition (IC50) at FLT3 D835Y and on TGFβR2 was 0.0001 to 10 µM in each case.

For `N#CC1(NC(=O)c2cccc(-c3cnc4[nH]c(-c5cnn(C(F)F)c5)cc4c3)n2)CC1` [P-006, N-(1-cyanocyclopropyl)-6-(2-(1-(difluoromethyl)-1H-pyrazol-4-yl)-1H-pyrrolo[2,3-b]pyridin-5-yl)picolinamide], the 50% inhibitory concentration (IC50) at FLT3 D835Y and on TGFβR2 was 0.0001 to 10 µM each time.

In the case of `N#CC1(NC(=O)c2cccc(-c3cnc4[nH]c(-c5cnn(C(F)F)c5)cc4c3)n2)CCC1` [P-007, N-(1-cyanocyclobutyl)-6-(2-(1-(difluoromethyl)-1H-pyrazol-4-yl)-1H-pyrrolo[2,3-b]pyridin-5-yl)picolinamide], the concentration for half-maximal inhibition (IC50) on FLT3 D835Y and at TGFβR2 was 0.0001 to 10 µM throughout.

`N#CC1(CNC(=O)c2cccc(-c3cnc4[nH]c(-c5cnn(C(F)F)c5)cc4c3)n2)CC1` [P-008, N-((1-cyanocyclopropyl)methyl)-6-(2-(1-(difluoromethyl)-1H-pyrazol-4-yl)-1H-pyrrolo[2,3-b]pyridin-5-yl)picolinamide]: the concentration for half-maximal inhibition (IC50) on FLT3 D835Y and on TGFβR2 was 0.0001 to 10 µM throughout.

`O=C(NC1CC(O)C1)c1cccc(-c2cnc3[nH]c(-c4cnn(C(F)F)c4)cc3c2)n1` (centres unmarked) [P-009, 6-(2-(1-(difluoromethyl)-1H-pyrazol-4-yl)-1H-pyrrolo[2,3-b]pyridin-5-yl)-N-(3-hydroxycyclobutyl)picolinamide]: the half-inhibitory concentration (IC50) on FLT3 D835Y and at TGFβR2 was 0.0001 to 10 µM each time.

`O=C(NC1CS(=O)(=O)C1)c1cccc(-c2cnc3[nH]c(-c4cnn(C(F)F)c4)cc3c2)n1` [P-010, 6-(2-(1-(difluoromethyl)-1H-pyrazol-4-yl)-1H-pyrrolo[2,3-b]pyridin-5-yl)-N-(1,1-dioxidothietan-3-yl)picolinamide]: the 50% inhibitory concentration (IC50) at FLT3 D835Y and at TGFβR2 was 0.0001 to 10 µM throughout.

`CC(C)(O)CNC(=O)c1cccc(-c2cnc3[nH]c(-c4cnn(C(F)F)c4)cc3c2)n1` [P-011, 6-(2-(1-(difluoromethyl)-1H-pyrazol-4-yl)-1H-pyrrolo[2,3-b]pyridin-5-yl)-N-(2-hydroxy-2-methylpropyl)picolinamide]: the IC50 at FLT3 D835Y and at TGFβR2 was 0.0001 to 10 µM each time.

With `O=C(NCC1(O)CC1)c1cccc(-c2cnc3[nH]c(-c4cnn(C(F)F)c4)cc3c2)n1` [P-012, 6-(2-(1-(difluoromethyl)-1H-pyrazol-4-yl)-1H-pyrrolo[2,3-b]pyridin-5-yl)-N-((1-hydroxycyclopropyl)methyl)picolinamide], the IC50 at FLT3 D835Y and at TGFβR2 was 0.0001 to 10 µM each time.

With `O=C(NCC1(O)CCC1)c1cccc(-c2cnc3[nH]c(-c4cnn(C(F)F)c4)cc3c2)n1` [P-013, 6-(2-(1-(difluoromethyl)-1H-pyrazol-4-yl)-1H-pyrrolo[2,3-b]pyridin-5-yl)-N-((1-hydroxycyclobutyl)methyl)picolinamide], the half-inhibitory concentration (IC50) on FLT3 D835Y and at TGFβR2 was 0.0001 to 10 µM each time.

In the case of `O=C(NC1COC1)c1cccc(-c2cnc3[nH]c(-c4cnn(C(F)F)c4)cc3c2)n1` [P-014, 6-(2-(1-(difluoromethyl)-1H-pyrazol-4-yl)-1H-pyrrolo[2,3-b]pyridin-5-yl)-N-(oxetan-3-yl)picolinamide], the concentration for half-maximal inhibition (IC50) at FLT3 D835Y and on TGFβR2 was 0.0001 to 10 µM in each case.

For `CN1CC(NC(=O)c2cccc(-c3cnc4[nH]c(-c5cnn(C(F)F)c5)cc4c3)n2)C1` [P-015, 6-(2-(1-(difluoromethyl)-1H-pyrazol-4-yl)-1H-pyrrolo[2,3-b]pyridin-5-yl)-N-(1-methylazetidin-3-yl)picolinamide], the IC50 on FLT3 D835Y and at TGFβR2 was 0.0001 to 10 µM throughout.

For the compound `O=C(Nc1ncc[nH]1)c1cccc(-c2cnc3[nH]c(-c4cnn(C(F)F)c4)cc3c2)n1` [P-016, 6-(2-(1-(difluoromethyl)-1H-pyrazol-4-yl)-1H-pyrrolo[2,3-b]pyridin-5-yl)-N-(1H-imidazol-2-yl)picolinamide], the IC50 on FLT3 D835Y and at TGFβR2 was 0.0001 to 10 µM each time.

Turning to `O=C(Nc1cnc[nH]1)c1cccc(-c2cnc3[nH]c(-c4cnn(C(F)F)c4)cc3c2)n1` [P-017, 6-(2-(1-(difluoromethyl)-1H-pyrazol-4-yl)-1H-pyrrolo[2,3-b]pyridin-5-yl)-N-(1H-imidazol-5-yl)picolinamide], the IC50 on FLT3 D835Y and at TGFβR2 was 0.0001 to 10 µM throughout.

Take `O=C(Nc1ccn[nH]1)c1cccc(-c2cnc3[nH]c(-c4cnn(C(F)F)c4)cc3c2)n1` [P-018, 6-(2-(1-(difluoromethyl)-1H-pyrazol-4-yl)-1H-pyrrolo[2,3-b]pyridin-5-yl)-N-(1H-pyrazol-5-yl)picolinamide]: the IC50 at FLT3 D835Y and at TGFβR2 was 0.0001 to 10 µM each time.

In the case of `O=C(Nc1nnc[nH]1)c1cccc(-c2cnc3[nH]c(-c4cnn(C(F)F)c4)cc3c2)n1` [P-019, 6-(2-(1-(difluoromethyl)-1H-pyrazol-4-yl)-1H-pyrrolo[2,3-b]pyridin-5-yl)-N-(4H-1,2,4-triazol-3-yl)picolinamide], the IC50 at FLT3 D835Y and at TGFβR2 was 0.0001 to 10 µM throughout.

In the case of `CC(C)(C#N)NC(=O)c1cncc(-c2cnc3[nH]c(-c4cnn(C(F)F)c4)cc3c2)n1` [P-021, N-(2-cyanopropan-2-yl)-6-(2-(1-(difluoromethyl)-1H-pyrazol-4-yl)-1H-pyrrolo[2,3-b]pyridin-5-yl)pyrazine-2-carboxamide], the half-maximal inhibitory concentration (IC50) on FLT3 D835Y and at TGFβR2 was 0.0001 to 10 µM throughout.

In the case of `CC(C)(C#N)NC(=O)c1cc(F)cc(-c2cnc3[nH]c(-c4cnn(C(F)F)c4)cc3c2)n1` [P-024, N-(2-cyanopropan-2-yl)-6-(2-(1-(difluoromethyl)-1H-pyrazol-4-yl)-1H-pyrrolo[2,3-b]pyridin-5-yl)-4-fluoropicolinamide], the concentration for half-maximal inhibition (IC50) on FLT3 D835Y and at TGFβR2 was 0.0001 to 10 µM in each case.

On to `CNC(=O)c1cc(Oc2ccc(NC(=O)Nc3ccc(Cl)c(C(F)(F)F)c3)cc2)ccn1` [sorafenib], for which the “activity against quizartinib resistance-causing mutants” value in assay [1] is on record as “ineffective”.

A word on the IC50: it is the midpoint of a concentration-inhibition curve.

(Values after patent US10428067B2, “Compounds and methods for kinase modulation” (Plexxikon Inc., priority 2017, dated 2019).)
